The record followed here is US7834217B2, “Method for producing oxidation product of cycloalkane” (Daicel Chemical Industries, Ltd., priority 2006, dated 2010).

The nature of the data set: Solubility in water at 25° C. The format is physicochemical.

On to `O=C1c2ccccc2C(=O)N1O` [N-hydroxyphthalimide], for which the “solubility in water (25° C.)” value is given as at most 0.01 g/100 g-H2O.
